From patent US12398097B2, “WDR5-MYC inhibitors” (Vanderbilt University, priority 2019, dated 2025)

Target: WDR5 (Homo sapiens, UniProt P61964)
Assay: Competition-based fluorescence polarization anisotropy assay
Conditions: binding to WDR5; displacement of FITC-labeled small molecule probe (analogous to Example J2 or HCH-25) or peptide probe FITC-AHx-SEEEIDVVSV; pH 6.0; Ki converted from IC50
Method in brief: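 Competition fluorescence polarization anisotropy binding to WDR5 using a FITC-labeled peptide probe or a fluorescently labeled small-molecule probe. Buffer: 200 mM phosphate, 300 mM NaCl, 0.5 mM TCEP, 0.1% Chaps, pH 6.0. Displacement data were converted to Ki.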

Compound	Ki
O=C(NCCN1CCOCC1)c1cc(OC(F)(F)F)cc(NS(=O)(=O)c2cc(Br)ccc2O)c1O [Example J164, 3-((5-Bromo-2-hydroxyphenyl)sulfonamido)-2-hydroxy-N-(2-morpholinoethyl)-(trifluoromethoxy)benzamide]	1.44 µM
O=C(c1cc(OC(F)(F)F)cc(NS(=O)(=O)c2cc(Br)ccc2O)c1O)N1CCC[C@H]1CO [Example J169, (S)-5-Bromo-2-hydroxy-N-(2-hydroxy-3-(2-(hydroxymethyl)pyrrolidine-1-carbonyl)-5-(trifluoromethoxy)phenyl)benzenesulfonamide]	1.71 µM
O=C(c1cc(OC(F)(F)F)cc(NS(=O)(=O)c2cc(Br)ccc2O)c1O)N1CCC[C@@H]1CO [Example J170, (R)-5-Bromo-2-hydroxy-N-(2-hydroxy-3-(2-(hydroxymethyl)pyrrolidine-1-carbonyl)-5-(trifluoromethoxy)phenyl)benzenesulfonamide]	2.84 µM
COC[C@@H]1CCCN1C(=O)c1cc(OC(F)(F)F)cc(NS(=O)(=O)c2cc(Br)ccc2O)c1O [Example J171, (S)-5-Bromo-2-hydroxy-N-(2-hydroxy-3-(2-(methoxymethyl)pyrrolidine-1-carbonyl)-5-(trifluoromethoxy)phenyl)benzenesulfonamide]	1.04 µM
O=C(c1cc(OC(F)(F)F)cc(NS(=O)(=O)c2cc(Br)ccc2O)c1O)N1CC[C@@H](O)C1 [Example J173, (R)-5-Bromo-2-hydroxy-N-(2-hydroxy-3-(3-hydroxypyrrolidine-1-carbonyl)-5-(trifluoromethoxy)phenyl)benzenesulfonamide]	1.56 µM
COC1CCN(C(=O)c2cc(OC(F)(F)F)cc(NS(=O)(=O)c3cc(Br)ccc3O)c2O)C1 (stereo not drawn) [Example J174, 5-Bromo-2-hydroxy-N-(2-hydroxy-3-(3-methoxypyrrolidine-1-carbonyl)-5-(trifluoromethoxy)phenyl)benzenesulfonamide]	4.69 µM
COC[C@@H]1CCCN1C(=O)c1cc(OC(F)(F)F)cc(NS(=O)(=O)c2cc(Cl)ccc2O)c1O [Example J176, (S)-5-Chloro-2-hydroxy-N-(2-hydroxy-3-(2-(methoxymethyl)pyrrolidine-1-carbonyl)-5-(trifluoromethoxy)phenyl)benzenesulfonamide]	7.01 µM
COC[C@H]1CCCN1C(=O)c1cc(OC(F)(F)F)cc(NS(=O)(=O)c2cc(Cl)ccc2O)c1O [Example J177, (R)-5-Chloro-2-hydroxy-N-(2-hydroxy-3-(2-(methoxymethyl)pyrrolidine-1-carbonyl)-5-(trifluoromethoxy)phenyl)benzenesulfonamide]	4.86 µM
COC[C@@H]1CCCN1C(=O)c1cc(OC(F)(F)F)cc(NS(=O)(=O)c2cc(Br)ccc2OC)c1O [Example J180, (S)-5-Bromo-N-(2-hydroxy-3-(2-(methoxymethyl)pyrrolidine-1-carbonyl)-5-(trifluoromethoxy)phenyl)-2-methoxybenzenesulfonamide]	4.02 µM
COC[C@H]1CCCN1C(=O)c1cc(OC(F)(F)F)cc(NS(=O)(=O)c2cc(Br)ccc2OC)c1O [Example J181, (R)-5-bromo-N-(2-hydroxy-3-(2-(methoxymethyl)pyrrolidine-1-carbonyl)-5-(trifluoromethoxy)phenyl)-2-methoxybenzenesulfonamide]	5.88 µM
CNC(=O)c1cc(OC(F)(F)F)cc(NS(=O)(=O)c2cc(Br)cc3cccnc23)c1O [Example J182, 3-((6-Bromoquinoline)-8-sulfonamido)-2-hydroxy-N-methyl-5-(trifluoromethoxy)benzamide]	1.06 µM
COc1ccc(Br)cc1S(=O)(=O)Nc1cc(-c2ccccc2)cc(C(=O)O)c1O [Example J183, 5-((5-Bromo-2-methoxyphenyl)sulfonamido)-4-hydroxy-[1,1′-biphenyl]-3-carboxylic acid]	2.38 µM
Cc1c(-c2ccccc2)cc(NS(=O)(=O)c2cc(Br)ccc2O)c(O)c1C(=O)O [Example J184, 5-((5-Bromo-2-hydroxyphenyl)sulfonamido)-4-hydroxy-2-methyl-[1,1′-biphenyl]-3-carboxylic acid]	1.62 µM
COc1ccc(Br)cc1S(=O)(=O)Nc1cc(C(=O)O)cc(C2=CCOCC2)c1 [Example J193, 3-((5-Bromo-2-methoxyphenyl)sulfonamido)-5-(3,6-dihydro-2H-pyran-4-yl)benzoic acid]	69.2 µM

Compounds with a lower Ki, results first:

Ki	Compound
0.57 µM	COCCNC(=O)c1cc(OC(F)(F)F)cc(NS(=O)(=O)c2cc(Br)ccc2O)c1O [Example J163, 3-((5-Bromo-2-hydroxyphenyl)sulfonamido)-2-hydroxy-N-(2-methoxyethyl)-5-(trifluoromethoxy)benzamide]
0.42 µM	O=C(NCC1CCCO1)c1cc(OC(F)(F)F)cc(NS(=O)(=O)c2cc(Br)ccc2O)c1O (stereo not drawn) [Example J165, 3-((5-Bromo-2-hydroxyphenyl)sulfonamido)-2-hydroxy-N-((tetrahydrofuran-2-yl)methyl)-5-(trifluoromethoxy)benzamide]
0.68 µM	O=C(NCC1CCOC1)c1cc(OC(F)(F)F)cc(NS(=O)(=O)c2cc(Br)ccc2O)c1O (stereo not drawn) [Example J166, 3-((5-Bromo-2-hydroxyphenyl)sulfonamido)-2-hydroxy-N-((tetrahydrofuran-3-yl)methyl)-5-(trifluoromethoxy)benzamide]
0.36 µM	O=C(NC1CCOC1)c1cc(OC(F)(F)F)cc(NS(=O)(=O)c2cc(Br)ccc2O)c1O (stereo not drawn) [Example J167, 3-((5-Bromo-2-hydroxyphenyl)sulfonamido)-2-hydroxy-N-(tetrahydrofuran-3-yl)-5-(trifluoromethoxy)benzamide]
0.46 µM	O=C(N[C@H]1CCOC1)c1cc(OC(F)(F)F)cc(NS(=O)(=O)c2cc(Br)ccc2O)c1O [Example J168, (S)-3-((5-Bromo-2-hydroxyphenyl)sulfonamido)-2-hydroxy-N-(tetrahydrofuran-3-yl)-5-(trifluoromethoxy)benzamide]
0.68 µM	COC[C@H]1CCCN1C(=O)c1cc(OC(F)(F)F)cc(NS(=O)(=O)c2cc(Br)ccc2O)c1O [Example J172, (R)-5-Bromo-2-hydroxy-N-(2-hydroxy-3-(2-(methoxymethyl)pyrrolidine-1-carbonyl)-5-(trifluoromethoxy)phenyl)benzenesulfonamide]
0.81 µM	CNC(=O)c1cc(OC(F)(F)F)cc(NS(=O)(=O)c2cc(Cl)ccc2O)c1O [Example J175, 3-((5-Chloro-2-hydroxyphenyl)sulfonamido)-2-hydroxy-N-methyl-5-(trifluoromethoxy)benzamide]
0.7 µM	O=C(NCC1CCCO1)c1cc(OC(F)(F)F)cc(NS(=O)(=O)c2cc(Cl)ccc2O)c1O (stereo not drawn) [Example J178, 3-((5-Chloro-2-hydroxyphenyl)sulfonamido)-2-hydroxy-N-((tetrahydrofuran-2-yl)methyl)-5-(trifluoromethoxy)benzamide]
0.74 µM	COc1ccc(Br)cc1S(=O)(=O)Nc1cc(OC(F)(F)F)cc(C(=O)NCC2CCCO2)c1O (stereo not drawn) [Example J179, 3-((5-Bromo-2-methoxyphenyl)sulfonamido)-2-hydroxy-N-((tetrahydrofuran-2-yl)methyl)-5-(trifluoromethoxy)benzamide]
0.58 µM	Cc1c(C2CC2)cc(NS(=O)(=O)c2cc(Br)ccc2O)c(O)c1C(=O)O [Example J185, 3-((5-Bromo-2-hydroxyphenyl)sulfonamido)-5-cyclopropyl-2-hydroxy-6-methylbenzoic acid]
